This note sets out measurements from patent US7253159B2, “Methods and compositions for immunomodulation using CD1 antigens” (The Brigham and Women's Hospital, Inc., priority 2003, dated 2007).

Data set [1] concerns CD1a-restricted T cell lines (J.RT-3/CD8-2 cells). The data set is classed as cell-based. The conditions noted are these: FIG. 7, comparison between homologs.
A short description of data set [2]: Iron-bound or unbound form detected by mass spectrometry. The data set is classed as physicochemical. The conditions noted are these: mass spectrometry: [M+Fe−2H]+ at m/z 923.5 or proton adduct at m/z 838.6. From the text:
The newly discovered antigens share some structural homology to mycobactin siderophores but lack two hydroxyl groups present in mycobactins, which confer upon mycobactins their ability to bind iron.

Data set [3] deals with CD1a-restricted T cells. Briefly: CD1a-restricted T cell activation assay (CD8-2 T cell line). The data set is classed as cell-based.
For data set [4], the system named is J.RT-3 T lymphoblastoid cells / CD1a. The data set is classed as cell-based.
In data set [5] the test system is polyclonal T cells. Briefly: Activation of polyclonal T cells. The data set is classed as cell-based. To be noted: test for mitogen effects.
Data set [6] has as its system CD1b transfectants. The data set is classed as cell-based. The conditions noted are these: test for mitogen effects.
The test system of data set [7] is CD1c transfectants. The data set is classed as cell-based. The conditions noted are these: test for mitogen effects.

Regarding mycobactin [reference compound], in data set [1], the “T cell response (ability to activate T cells)” value is “not recognized”. Also, the “form detected (iron-bound or unbound)” value in data set [2] is on record as “iron-bound form”. For the same compound, the “CD1a-restricted T cell response (recognition by T cells)” value in data set [3] is on record as “did not stimulate”.
In the case of `CCCCCCCCCCCCCCCCCCCC(=O)NCCCCC(NC(=O)C1(C)COC(c2ccccc2O)=N1)C(=O)OC(C)CC(=O)NC1CCCCNC1=O` (stereo not drawn) [DDM840], the “T cell response (ability to activate T cells)” value in data set [1] is given as “weaker ability to activate T cells”.
With `CCCCCCCCCCCCCCCCCC(=O)NCCCCC(NC(=O)C1(C)COC(c2ccccc2O)=N1)C(=O)OC(C)CC(=O)NC1CCCCNC1=O` (stereo not drawn) [DDM812], in data set [1], the “T cell response (ability to activate T cells)” value was “weaker ability to activate T cells”.
Consider `CCCCCCCCCCCCCCC/C=C\C(=O)NCCCCC(NC(=O)C1(C)COC(c2ccccc2O)=N1)C(=O)OC(C)CC(=O)NC1CCCCNC1=O` (stereo not drawn) [DDM838, didehydroxymycobactin], for which, in data set [1], the “T cell response (ability to activate T cells)” value was “most potent”. In data set [4] ([…], Fura Red and Fluo-4, flow cytometry), the “calcium flux (activation)” value is “Strong calcium flux”. In addition, the “activation (calcium flux) in control settings” value in data set [4] (antigen, TCR or CD1a omitted, or cells not subjected to centrifugation (spin)) is “No activation”. Moreover, the “activation of polyclonal T cells” value in data set [5] is reported as “not above to activate”. Besides, the “activation with CD1b transfectants” value in data set [6] was “not above to activate”. Moreover, in data set [7], the “activation with CD1c transfectants” value is “not above to activate”. The “form detected (iron-bound or unbound)” value in data set [2] was “unbound form”.
